Experimental data as given in patent publication US20150064287A1, “METHOD FOR TREATING ABNORMAL POLYGLUTAMINE-MEDIATED DISEASES” (NATIONAL TAIWAN NORMAL UNIVERSITY, priority 2013, published 2015).

Key:
293 ATXN3/Q75-GFP cells = experiment: ATXN3/Q75 aggregation assay in 293 cells (high-content analysis); format: cell-based, human; conditions: 8 hr pretreatment, doxycycline and oxaliplatin 6 days
Experimental: The isogenic ATXN3/[…]-75 cell line was employed, which was formed from subjecting the Flp-InTM-293 cells to targeting insertion of the pcDNA5/FRT/TO-ATXN3/[…] and […] recombinant plasmids. These cell lines were grown in medium containing 5 μg/mL blasticidin and 100 μg/mL hygromycin (InvivoGen). In addition, the method for culture in establishment of the human SH-SY5Y derived Flp-In host cell line and the formation of the isogenic ATXN3/[…]-75 cell line was the same. […] Then doxycycline (10 μg/mL, BD) and oxaliplatin (5 μM, Sigma) were added for 6 days.

[1] = MTT cytotoxicity assay in HEK-293 cells; format: cell-based; conditions: human, one day treatment
Experimental: (§1) Cells (5×10^4/well in 48-well dishes) were cultivated at 37° C. incubator containing 5% CO2 for 20 hr and treated with different concentrations of the Gardenia jasminoides extract (5-30 mg/mL) or pure compound (100 nM-1 mM). After one day, 20 μL MTT (3,[4,5-dimethylthiazol-2-yl]-2,5-diphenyl-tetrazolium bromide, 5 mg/mL in PBS; Sigma-Aldrich) was added to cells and incubated for 2 hr. The absorbance of the purple formazan dye was measured at 570 nm by a Bio-Tek μQuant Universal Microplate Spectrophotometer.

[2] = MTT cytotoxicity assay in SH-SY5Y cells; format: cell-based; conditions: human, one day treatment
Experimental: as §1

[3] = tested on: SH-SY5Y ATXN3/Q75-GFP cells; experiment: ATXN3/Q75 aggregation assay in retinoic acid-differentiated SH-SY5Y cells; format: cell-based, human; conditions: one week
Experimental: Flp-InTM-293 cells derived from human 293 (Invitrogen) were cultured as described above. The isogenic ATXN3/[…]-75 cell line was employed, which was formed from subjecting the Flp-InTM-293 cells to targeting insertion of the pcDNA5/FRT/TO-ATXN3/[…] and […] recombinant plasmids. These cell lines were grown in medium containing 5 μg/mL blasticidin and 100 μg/mL hygromycin (InvivoGen). In addition, the method for culture in establishment of the human SH-SY5Y derived Flp-In host cell line and the formation of the isogenic ATXN3/[…]-75 cell line was the same. […] After that, cells were stained with Hoechst 33342 (0.1 μg/mL) and aggregation percentage was assessed as described.

[4] = 1,1-diphenyl-2-picryl hydrazyl (DPPH) radical scavenging assay; format: biochemical; conditions: for DPPH scavenging activity: 10-200 μM tested, data not shown
Experimental: Then, the scavenging capacity was measured by monitoring the decrease in absorbance at 517 nm by a Thermo Scientific Multiskan GO Microplate Spectrophotometer.

Row | EC50 ([4]; 100 μM DPPH, 30 min room temperature) | SMILES | ATXN3/Q75 aggregation as compared to untreated cells (293 ATXN3/Q75-GFP cells; at 100 nM) | IC50 at 1 day [1] | IC50 at 1 day [2] | aggregation reduction in ATXN3/Q75 expressed neuronal cells ([3]; 100 nM) | DPPH scavenging activity [4] | aggregation reduction in ATXN3/Q75 expressed neuronal cells ([3]; 500 nM) | ATXN3/Q75 aggregation as compared to untreated cells (293 ATXN3/Q75-GFP cells; at 500 nM)
1 |  | O=C(CCCCCCC(=O)Nc1ccccc1)NO [SAHA, suberoylanilide hydroxamic acid, reference compound] | 85.9% |  |  |  |  |  | 
2 |  | CC(/C=C/C=C(\C)C(=O)O[C@@H]1O[C@H](CO[C@@H]2O[C@H](CO)[C@@H](O)[C@H](O)[C@H]2O)[C@@H](O)[C@H](O)[C@H]1O)=C\C=C\C=C(C)\C=C\C=C(/C)C(=O)O[C@@H]1O[C@H](CO[C@@H]2O[C@H](CO)[C@@H](O)[C@H](O)[C@H]2O)[C@@H](O)[C@H](O)[C@H]1O [crocin] | 81.5% | > 1000 µM | 970 µM | 21% |  |  | 
3 |  | COC(=O)C1=CO[C@@H](O)[C@@H]2C(CO)=CC[C@H]12 [genipin] |  | 580 µM | 100 µM |  | no detectable DPPH scavenging activity | 18% | 
4 |  | COC(=O)C1=CO[C@@H](O[C@@H]2O[C@H](CO)[C@@H](O)[C@H](O)[C@H]2O)[C@@H]2C(CO)=CC[C@H]12 [geniposide] |  | > 1000 µM | > 1000 µM |  | no detectable DPPH scavenging activity | 21% | 82.3%
5 | 27 µM | O=c1c(O)c(-c2ccc(O)cc2)oc2cc(O)cc(O)c12 [kaempferol, reference compound] |  |  |  |  |  |  | 
